Data taken from patent publication US20230146795A1, “ENHANCEMENT OF ANTI-TUMOR ACTIVITY OF SHP2 INHIBITOR PYRIMIDINONE IN COMBINATION WITH NOVEL CANCER MEDICINES IN CANCERS” (TAIHO PHARMACEUTICAL CO., LTD., priority 2020, published 2023).

Assays:
Assay type in all cases: cell-based
MV-4-11 = assay: Anti-proliferation assay (CellTiter-Glo 2.0), combination index, MV-4-11
Experimental: (§1) Cell lines were obtained from ATCC or Health Science Research Resources Bank.
384 well culture plate (781086, Greiner Bio-One International) was used for cell survival rate measurement assay. Each cell lines were collected by ordinary method, then suspended in indicated medium containing 10% fetal bovine serum in table 3. The number of cells seeded per well was set to 500 cells/20 μL. After incubation at 37° C. for 24 hours under 5% CO2, Compound 1 and additional compound having an antitumor effect or a vehicle (DMSO) was added to each well by using D300e Digital Dispenser (Tecan). The concentration of Compound 1 was set to 10 concentrations. The concentration of each anti-cancer reagents set to 8 concentrations including 0 nM. After adding the medicine to the cells, the cells were further incubated at 37° C. for 3 days under 5% CO2. Cell survival rates were calculated by adding 20 μL of CellTiter-Glo(registered trademark) 2. 0 (Promega) solution to each well, incubating the cells at room temperature for 10 minutes, and then measuring the chemiluminescence intensity of each well using a plate reader (ARVO).
(§2) A combination index (CI) value at each combined concentration of the medicines was determined.

MKN45 = assay: Anti-proliferation assay (CellTiter-Glo 2.0), combination index, MKN45; conditions: for Description (combinatory effect by CI): Compound 1:combination drug molar ratio 1:27
Experimental: as §1
(§3) Each cell lines were collected by ordinary method, then suspended in indicated medium containing 10% fetal bovine serum in table 3. The number of cells seeded per well was set to 500 cells/20 μL. […] The concentration of each anti-cancer reagents set to 8 concentrations including 0 nM. After adding the medicine to the cells, the cells were further incubated at 37° C. for 3 days under 5% CO2. Cell survival rates were calculated by adding 20 μL of CellTiter-Glo(registered trademark) 2. 0 (Promega) solution to each well, incubating the cells at room temperature for 10 minutes, and then measuring the chemiluminescence intensity of each well using a plate reader (ARVO).
as §2

NCI-H358 = assay: Anti-proliferation assay (CellTiter-Glo 2.0), combination index, NCI-H358; conditions: for Description (combinatory effect by CI): Compound 1:combination drug molar ratio 1:9
Experimental: as §1, §3, §2

RT4 = assay: Anti-proliferation assay (CellTiter-Glo 2.0), combination index, RT4
Experimental: as §1, §3, §2

[1] = Compound 1 4.57 + combination drug 123 nmol/L (1:27)
[2] = Compound 1 13.7 + combination drug 370 nmol/L (1:27)
[3] = Compound 1 41.2 + combination drug 1110 nmol/L (1:27)
[4] = Compound 1 123 + combination drug 3330 nmol/L (1:27)
[5] = Compound 1 370 + combination drug 10000 nmol/L (1:27)
[6] = Compound 1 41.2 + combination drug 370 nmol/L (1:9)
[7] = Compound 1 123 + combination drug 1110 nmol/L (1:9)
[8] = Compound 1 370 + combination drug 3330 nmol/L (1:9)
[9] = Compound 1 1110 + combination drug 10000 nmol/L (1:9)
[10] = Compound 1 1.52 + combination drug 123 nmol/L (1:81)
[11] = Compound 1 13.7 + combination drug 1110 nmol/L (1:81)
[12] = Compound 1 41.2 + combination drug 3330 nmol/L (1:81)
[13] = Compound 1 123 + combination drug 10000 nmol/L (1:81)
[14] = Compound 1 13.7 + combination drug 123 nmol/L (1:9)
[15] = Compound 1 3330 nmol/L + Doxorubicin 370 nmol/L, molar ratio 1:0.1
[16] = Compound 1 10000 nmol/L + Doxorubicin 1110 nmol/L, molar ratio 1:0.1
[17] = Compound 1 123 nmol/L + Doxorubicin 123 nmol/L, molar ratio 1:1
[18] = Compound 1 370 nmol/L + Doxorubicin 370 nmol/L, molar ratio 1:1
[19] = Compound 1 1110 nmol/L + Doxorubicin 1110 nmol/L, molar ratio 1:1
[20] = Compound 1 41.2 nmol/L + Doxorubicin 13.7 nmol/L, molar ratio 1:0.3
[21] = Compound 1 123 nmol/L + Doxorubicin 41.2 nmol/L, molar ratio 1:0.3
[22] = Compound 1 370 nmol/L + Doxorubicin 123 nmol/L, molar ratio 1:0.3
[23] = Compound 1 3330 nmol/L + Doxorubicin 1110 nmol/L, molar ratio 1:0.3
[24] = Compound 1 10000 nmol/L + Doxorubicin 3330 nmol/L, molar ratio 1:0.3

CCc1cc2c(cc1N1CCC(N3CCOCC3)CC1)C(C)(C)c1[nH]c3cc(C#N)ccc3c1C2=O [Alectinib]
CI (MV-4-11; [1]): 0.829
Fa (MV-4-11; [1]): 0.5762
CI (MV-4-11; [2]): 0.484
Fa (MV-4-11; [2]): 0.8852
CI (MV-4-11; [3]): 0.609
Fa (MV-4-11; [3]): 0.9534
CI (MV-4-11; [4]): 0.187
Fa (MV-4-11; [4]): 0.9967
CI (MV-4-11; [5]): 0.631
Fa (MV-4-11; [5]): 0.9962
CI (MKN45; [3]): 0.905
Fa (MKN45; [3]): 0.4310
CI (MKN45; [5]): 0.542
Fa (MKN45; [5]): 0.9801
Description (combinatory effect by CI) (MKN45): Synergy (0.3-0.7)

Cc1nc(NC(=O)N2CCC[C@H]2C(N)=O)sc1-c1ccnc(C(C)(C)C(F)(F)F)c1 [Alpelisib]
CI (NCI-H358; [6]): 0.451
Fa (NCI-H358; [6]): 0.1532
CI (NCI-H358; [7]): 0.356
Fa (NCI-H358; [7]): 0.4353
CI (NCI-H358; [8]): 0.589
Fa (NCI-H358; [8]): 0.5959
CI (NCI-H358; [9]): 0.844
Fa (NCI-H358; [9]): 0.7671
Description (combinatory effect by CI) (NCI-H358): Synergy (0.3-0.7)
CI (MKN45; [2]): 0.700
Fa (MKN45; [2]): 0.1253
CI (MKN45; [3]): 0.426
Fa (MKN45; [3]): 0.4108
CI (MKN45; [4]): 0.655
Fa (MKN45; [4]): 0.5920
CI (MKN45; [5]): 0.772
Fa (MKN45; [5]): 0.8141
Description (combinatory effect by CI) (MKN45): Synergy (0.3-0.7)
CI (RT4; [10]): 0.255
Fa (RT4; [10]): 0.0658
CI (RT4; [11]): 0.247
Fa (RT4; [11]): 0.2690
CI (RT4; [12]): 0.318
Fa (RT4; [12]): 0.4427
CI (RT4; [13]): 0.528
Fa (RT4; [13]): 0.5855

COc1cc2c(Oc3ccc4[nH]c(C)cc4c3F)ccnc2cc1OCC1(N)CC1 [Anlotinib]
CI (NCI-H358; [6]): 0.557
Fa (NCI-H358; [6]): 0.3217
CI (NCI-H358; [7]): 0.416
Fa (NCI-H358; [7]): 0.5609
CI (NCI-H358; [8]): 0.390
Fa (NCI-H358; [8]): 0.7902
CI (NCI-H358; [9]): 0.488
Fa (NCI-H358; [9]): 0.9031
Description (combinatory effect by CI) (NCI-H358): Synergy (0.3-0.7)
CI (MKN45; [4]): 0.755
Fa (MKN45; [4]): 0.7514
CI (RT4; [14]): 0.501
Fa (RT4; [14]): 0.3362
CI (RT4; [6]): 0.444
Fa (RT4; [6]): 0.5003
CI (RT4; [7]): 0.387
Fa (RT4; [7]): 0.7040
CI (RT4; [8]): 0.326
Fa (RT4; [8]): 0.8765
CI (RT4; [9]): 0.316
Fa (RT4; [9]): 0.9539
Description (combinatory effect by CI) (RT4; Compound 1:combination drug molar ratio 1:9): Synergy (0.3-0.7)

COc1cccc2c1C(=O)c1c(O)c3c(c(O)c1C2=O)C[C@@](O)(C(=O)CO)C[C@@H]3O[C@H]1C[C@H](N)[C@H](O)[C@H](C)O1 [Doxorubicin]
CI (NCI-H358; [15]): 0.845
Fa (NCI-H358; [15]): 0.7275
CI (NCI-H358; [16]): 0.249
Fa (NCI-H358; [16]): 0.9706
CI (MKN45; [17]): 0.596
Fa (MKN45; [17]): 0.5818
CI (MKN45; [18]): 0.267
Fa (MKN45; [18]): 0.8738
CI (MKN45; [19]): 0.361
Fa (MKN45; [19]): 0.9317
CI (RT4; [20]): 0.866
Fa (RT4; [20]): 0.2952
CI (RT4; [21]): 0.403
Fa (RT4; [21]): 0.5056
CI (RT4; [22]): 0.554
Fa (RT4; [22]): 0.6537
CI (RT4; [23]): 0.191
Fa (RT4; [23]): 0.9964
CI (RT4; [24]): 0.063
Fa (RT4; [24]): 0.9999
